Among the data in patent US11981658B2, “Substituted aminopyridine compounds as EGFR inhibitors” (YUHAN CORPORATION, priority 2021, dated 2024) are IC50 values, retold here.

Where two headings read alike, the source gives them in different places.

In one assay the target is EGFR L858R/C797S (Homo sapiens, UniProt P00533, C797S/L858R). Nature of the assay: Biochemical EGFR kinase inhibition assay (Lance Ultra TR-FRET), double mutant L858R/C797S. A digest of the protocol:
(§1)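 In this biochemical assay, phosphorylation after a one-hour room-temperature reaction was detected with europium-labelled anti-phosphopeptide antibody at 2 nM final concentration.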

The next assay deals with EGFR Del19/C797S (Homo sapiens, UniProt P00533, C797S/DEL746-750). Briefly: Biochemical EGFR kinase inhibition assay (Lance Ultra TR-FRET), double mutant del19/C797S. The essentials:
as §1
For orientation: In TR-FRET formats the signal depends on donor and acceptor labels being close together.

Another assay concerns the target EGFR Del19/T790M/C797S (Homo sapiens, UniProt P00533, C797S/DEL746-750/T790M). Briefly: Biochemical EGFR kinase inhibition assay (Lance Ultra TR-FRET), triple mutant del19/T790M/C797S. The essentials:
as §1

Another assay concerns the target EGFR wildtype (WT) (Homo sapiens, UniProt P00533). Briefly: Biochemical EGFR kinase inhibition assay (Lance Ultra TR-FRET), wildtype. A digest of the protocol:
as §1

The next assay concerns the target EGFR L858R/T790M/C797S (Homo sapiens, UniProt P00533, C797S/L858R/T790M). Briefly: Biochemical EGFR kinase inhibition assay (Lance Ultra TR-FRET), triple mutant L858R/T790M/C797S. The essentials:
as §1

Where [1] appears, read: IC50 L858R/C797S (nM), 100 μM ATP.
Where [2] appears, read: Km ATP, read-out: IC50 L858R/C797S (nM), Km ATP.
Where [3] appears, read: IC50 Del19/C797S (nM), 100 μM ATP.
[4] abbreviates: Km ATP, read-out: IC50 Del19/C797S (nM), Km ATP.
[5] abbreviates: IC50 Del19/T790M/C797S (nM), 100 μM ATP.
Where [6] appears, read: Km ATP, read-out: IC50 Del19/T790M/C797S (nM), Km ATP.
[7] abbreviates: Km ATP, read-out: IC50 WT (nM), Km ATP.
Setting [8] is: IC50 L858R/T790M/C797S (nM), 100 μM ATP.
[9] abbreviates: Km ATP, read-out: IC50 L858R/T790M/C797S (nM), Km ATP.

Chain of EGFR wildtype (WT) (P00533 25-1210): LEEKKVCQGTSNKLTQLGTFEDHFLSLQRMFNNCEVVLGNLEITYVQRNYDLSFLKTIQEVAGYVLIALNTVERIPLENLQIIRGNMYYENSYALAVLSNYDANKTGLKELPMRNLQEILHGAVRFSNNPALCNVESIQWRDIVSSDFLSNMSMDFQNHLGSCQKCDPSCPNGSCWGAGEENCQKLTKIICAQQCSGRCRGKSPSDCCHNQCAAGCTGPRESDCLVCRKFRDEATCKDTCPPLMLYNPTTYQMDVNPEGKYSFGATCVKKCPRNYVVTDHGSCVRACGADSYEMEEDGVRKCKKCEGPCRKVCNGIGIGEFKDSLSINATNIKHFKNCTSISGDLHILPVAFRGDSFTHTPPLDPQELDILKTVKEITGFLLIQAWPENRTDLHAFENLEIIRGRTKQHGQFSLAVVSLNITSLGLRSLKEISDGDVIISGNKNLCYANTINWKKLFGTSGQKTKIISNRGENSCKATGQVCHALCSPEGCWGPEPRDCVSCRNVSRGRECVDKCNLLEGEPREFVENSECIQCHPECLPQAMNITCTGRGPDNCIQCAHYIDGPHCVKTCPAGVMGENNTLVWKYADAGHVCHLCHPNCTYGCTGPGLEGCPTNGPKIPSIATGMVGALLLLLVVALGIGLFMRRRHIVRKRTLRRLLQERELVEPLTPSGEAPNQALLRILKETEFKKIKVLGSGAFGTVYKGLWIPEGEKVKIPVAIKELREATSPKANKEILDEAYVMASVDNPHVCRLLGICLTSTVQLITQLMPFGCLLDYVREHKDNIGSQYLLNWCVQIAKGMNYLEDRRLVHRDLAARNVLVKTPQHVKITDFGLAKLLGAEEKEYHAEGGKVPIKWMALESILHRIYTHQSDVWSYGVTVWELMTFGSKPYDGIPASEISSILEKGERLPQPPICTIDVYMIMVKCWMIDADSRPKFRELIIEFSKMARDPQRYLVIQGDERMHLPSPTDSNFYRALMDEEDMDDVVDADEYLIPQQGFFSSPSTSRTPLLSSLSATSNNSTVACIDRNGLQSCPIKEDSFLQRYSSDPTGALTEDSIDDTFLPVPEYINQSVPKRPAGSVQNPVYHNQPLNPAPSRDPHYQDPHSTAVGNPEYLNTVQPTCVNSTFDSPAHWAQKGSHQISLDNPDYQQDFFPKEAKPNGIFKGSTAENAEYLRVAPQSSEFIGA
Chain of EGFR L858R/C797S (P00533 25-1210 C797S/L858R): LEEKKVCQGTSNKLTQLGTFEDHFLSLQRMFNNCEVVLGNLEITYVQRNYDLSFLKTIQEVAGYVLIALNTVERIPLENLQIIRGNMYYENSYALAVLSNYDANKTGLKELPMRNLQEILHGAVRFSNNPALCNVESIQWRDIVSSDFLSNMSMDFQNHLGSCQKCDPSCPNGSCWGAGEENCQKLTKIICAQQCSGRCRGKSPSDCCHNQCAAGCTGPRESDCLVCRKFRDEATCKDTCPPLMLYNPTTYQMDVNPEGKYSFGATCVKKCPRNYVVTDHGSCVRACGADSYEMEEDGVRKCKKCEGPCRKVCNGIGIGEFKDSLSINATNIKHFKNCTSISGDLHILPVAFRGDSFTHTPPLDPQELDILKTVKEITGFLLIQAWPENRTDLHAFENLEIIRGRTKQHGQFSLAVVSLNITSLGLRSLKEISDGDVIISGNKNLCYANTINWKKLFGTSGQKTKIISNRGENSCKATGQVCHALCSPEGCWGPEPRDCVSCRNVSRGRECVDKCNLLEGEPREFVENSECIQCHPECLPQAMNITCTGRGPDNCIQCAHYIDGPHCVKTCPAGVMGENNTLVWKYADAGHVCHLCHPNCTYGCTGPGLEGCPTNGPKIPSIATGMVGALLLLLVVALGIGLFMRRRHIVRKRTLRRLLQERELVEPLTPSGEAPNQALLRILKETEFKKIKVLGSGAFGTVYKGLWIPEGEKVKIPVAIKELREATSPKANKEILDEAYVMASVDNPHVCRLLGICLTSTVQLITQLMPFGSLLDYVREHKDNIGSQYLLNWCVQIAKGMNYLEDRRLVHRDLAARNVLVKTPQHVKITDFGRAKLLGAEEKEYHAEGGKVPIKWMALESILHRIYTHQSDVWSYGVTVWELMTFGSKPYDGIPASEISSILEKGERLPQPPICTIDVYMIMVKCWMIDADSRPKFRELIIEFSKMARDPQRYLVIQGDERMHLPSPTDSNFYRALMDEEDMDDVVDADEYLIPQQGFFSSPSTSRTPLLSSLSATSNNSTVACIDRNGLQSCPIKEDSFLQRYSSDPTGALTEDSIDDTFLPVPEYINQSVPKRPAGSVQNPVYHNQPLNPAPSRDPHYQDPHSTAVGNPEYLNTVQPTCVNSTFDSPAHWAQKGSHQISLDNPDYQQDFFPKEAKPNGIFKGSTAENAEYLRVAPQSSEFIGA
Chain of EGFR L858R/T790M/C797S (P00533 25-1210 T790M/C797S/L858R): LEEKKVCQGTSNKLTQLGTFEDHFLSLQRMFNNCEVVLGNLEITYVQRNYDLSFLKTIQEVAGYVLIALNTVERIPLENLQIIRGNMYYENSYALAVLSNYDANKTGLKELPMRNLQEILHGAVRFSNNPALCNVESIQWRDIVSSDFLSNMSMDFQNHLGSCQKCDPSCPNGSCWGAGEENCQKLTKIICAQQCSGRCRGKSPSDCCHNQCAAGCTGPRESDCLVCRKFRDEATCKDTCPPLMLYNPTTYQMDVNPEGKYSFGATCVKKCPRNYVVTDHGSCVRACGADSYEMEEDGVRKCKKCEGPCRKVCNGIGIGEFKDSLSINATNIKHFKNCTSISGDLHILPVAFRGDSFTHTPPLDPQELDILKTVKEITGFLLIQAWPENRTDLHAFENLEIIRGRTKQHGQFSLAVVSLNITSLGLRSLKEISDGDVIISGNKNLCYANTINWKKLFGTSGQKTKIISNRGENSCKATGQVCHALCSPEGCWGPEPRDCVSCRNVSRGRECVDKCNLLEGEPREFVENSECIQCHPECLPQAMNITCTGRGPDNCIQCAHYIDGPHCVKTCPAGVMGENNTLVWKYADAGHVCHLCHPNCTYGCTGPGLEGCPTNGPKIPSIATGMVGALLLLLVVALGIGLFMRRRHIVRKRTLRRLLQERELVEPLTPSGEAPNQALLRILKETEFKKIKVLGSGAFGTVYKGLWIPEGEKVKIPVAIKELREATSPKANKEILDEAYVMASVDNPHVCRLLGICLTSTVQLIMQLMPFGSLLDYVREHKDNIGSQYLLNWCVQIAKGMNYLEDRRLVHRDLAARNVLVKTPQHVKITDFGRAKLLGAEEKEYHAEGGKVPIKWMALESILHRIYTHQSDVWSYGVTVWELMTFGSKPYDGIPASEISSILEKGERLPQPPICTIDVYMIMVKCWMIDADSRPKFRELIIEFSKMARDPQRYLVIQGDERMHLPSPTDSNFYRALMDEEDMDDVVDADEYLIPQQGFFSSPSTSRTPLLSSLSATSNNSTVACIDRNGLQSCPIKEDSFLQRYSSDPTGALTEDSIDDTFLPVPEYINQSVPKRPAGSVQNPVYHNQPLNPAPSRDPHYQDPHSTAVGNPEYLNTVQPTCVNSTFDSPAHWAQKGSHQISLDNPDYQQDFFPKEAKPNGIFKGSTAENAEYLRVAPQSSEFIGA
Chain of EGFR Del19/C797S (P00533 with tags, fused parts or gaps DEL746-750/C797S): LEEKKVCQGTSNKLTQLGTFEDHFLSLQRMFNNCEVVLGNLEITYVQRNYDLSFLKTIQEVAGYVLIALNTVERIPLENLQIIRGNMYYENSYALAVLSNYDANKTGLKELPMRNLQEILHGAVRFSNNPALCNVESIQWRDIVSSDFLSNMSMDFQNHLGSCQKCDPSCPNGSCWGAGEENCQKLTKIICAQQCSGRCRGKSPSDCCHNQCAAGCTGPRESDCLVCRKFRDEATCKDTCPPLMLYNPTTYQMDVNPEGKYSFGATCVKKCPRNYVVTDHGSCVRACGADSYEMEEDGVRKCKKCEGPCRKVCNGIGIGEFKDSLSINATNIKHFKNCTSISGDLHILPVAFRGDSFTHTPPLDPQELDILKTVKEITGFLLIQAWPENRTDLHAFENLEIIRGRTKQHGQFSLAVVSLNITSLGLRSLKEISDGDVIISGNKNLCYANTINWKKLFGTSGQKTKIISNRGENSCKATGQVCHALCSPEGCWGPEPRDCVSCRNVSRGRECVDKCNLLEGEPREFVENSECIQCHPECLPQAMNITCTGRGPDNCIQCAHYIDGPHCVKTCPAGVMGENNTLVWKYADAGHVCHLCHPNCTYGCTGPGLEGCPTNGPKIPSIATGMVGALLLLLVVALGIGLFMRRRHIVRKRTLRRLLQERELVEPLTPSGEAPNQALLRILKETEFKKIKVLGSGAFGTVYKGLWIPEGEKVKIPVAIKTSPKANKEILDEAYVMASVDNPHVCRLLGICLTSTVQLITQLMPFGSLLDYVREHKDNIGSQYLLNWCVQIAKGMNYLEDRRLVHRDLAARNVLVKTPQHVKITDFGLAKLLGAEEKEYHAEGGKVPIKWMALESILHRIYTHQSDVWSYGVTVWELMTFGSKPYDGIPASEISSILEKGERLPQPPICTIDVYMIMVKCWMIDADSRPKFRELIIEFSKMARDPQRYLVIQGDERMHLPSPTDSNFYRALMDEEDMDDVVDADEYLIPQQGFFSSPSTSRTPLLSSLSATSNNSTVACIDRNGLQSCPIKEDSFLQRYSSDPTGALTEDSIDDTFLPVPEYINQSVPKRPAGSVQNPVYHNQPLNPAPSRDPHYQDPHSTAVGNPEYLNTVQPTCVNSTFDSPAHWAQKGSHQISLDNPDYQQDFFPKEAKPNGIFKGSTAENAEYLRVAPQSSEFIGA

Take `CC1(CO)CCN(c2cc(Nc3ccnc(-c4cnn(S(=O)(=O)C5CC5)c4)n3)ncc2C#CC2COC2)CC1` [Example 352, (1-(2-((2-(1-(Cyclopropylsulfonyl)-1H-pyrazol-4-yl)pyrimidin-4-yl)amino)-5-(oxetan-3-ylethynyl)pyridin-4-yl)-4-methylpiperidin-4-yl)methanol]: the IC50 stood at 9.5 nM at EGFR L858R/C797S (setting [1]); 1.6 nM at EGFR L858R/C797S (setting [2]); 0.5 nM on EGFR Del19/C797S (setting [3]); 0.6 nM on EGFR Del19/C797S (setting [4]); 0.3 nM at EGFR Del19/T790M/C797S (setting [5]); 0.3 nM at EGFR Del19/T790M/C797S (setting [6]). Further, the IC50 stood at 820 nM at EGFR wildtype (WT) (IC50 WT (nM), 100 μM ATP); 5.5 nM at EGFR wildtype (WT) (setting [7]); 0.2 nM against EGFR L858R/T790M/C797S (setting [8]); 0.1 nM at EGFR L858R/T790M/C797S (setting [9]).

As for `CN(C)CCCn1cc(C#Cc2cnc(Nc3ccnc(-c4cnn(S(=O)(=O)C5CC5)c4)n3)cc2N2CCC(NCCF)CC2)cn1` [Example 145, 2-(1-(Cyclopropylsulfonyl)-1H-pyrazol-4-yl)-N-(5-((1-(3-(dimethylamino)propyl)-1H-pyrazol-4-yl)ethynyl)-4-(4-((2-fluoroethyl)amino)piperidin-1-yl)pyridin-2-yl)pyrimidin-4-amine], the IC50 against EGFR L858R/C797S (setting [1]) was 23.4 nM; on EGFR L858R/C797S (Km ATP, read-out: IC50 L858R/C797S (nM) Km ATP), 0.5 nM; against EGFR Del19/C797S (setting [3]) it was 0.7 nM; on EGFR Del19/C797S (Km ATP, read-out: IC50 Del19/C797S (nM) Km ATP), 0.6 nM; at EGFR Del19/T790M/C797S (setting [5]), 0.2 nM; at EGFR Del19/T790M/C797S (Km ATP, read-out: IC50 Del19/T790M/C797S (nM) Km ATP), 0.2 nM. In addition, the IC50 against EGFR wildtype (WT) (IC50 WT (nM), 100 μM ATP) came to 5550 nM; on EGFR wildtype (WT) (Km ATP, read-out: IC50 WT (nM) Km ATP), 14.2 nM; against EGFR L858R/T790M/C797S (setting [8]), 0.3 nM; on EGFR L858R/T790M/C797S (Km ATP, read-out: IC50 L858R/T790M/C797S (nM) Km ATP) it was 0.1 nM.

As to `O=S(=O)(C1CC1)n1cc(-c2nccc(Nc3cc(N[C@H]4CC[C@@H](O)CC4)c(C#CC4(O)CCCC4)cn3)n2)cn1` [Example 176, (1s,4s)-4-((2-((2-(1-(Cyclopropylsulfonyl)-1H-pyrazol-4-yl)pyrimidin-4-yl)amino)-5-((1-hydroxycyclopentyl)ethynyl)pyridin-4-yl)amino)cyclohexan-1-ol], the IC50 on EGFR L858R/C797S (ATP at Km, read-out: IC50 L858R/C797S (nM), Km ATP) worked out at 14.2 nM; on EGFR L858R/C797S (setting [1]), 104 nM; on EGFR Del19/C797S (ATP at Km, read-out: IC50 Del19/C797S (nM), Km ATP), 3 nM; at EGFR Del19/C797S (setting [3]), 3.6 nM; at EGFR Del19/T790M/C797S (ATP at Km, read-out: IC50 Del19/T790M/C797S (nM), Km ATP), 0.5 nM; at EGFR Del19/T790M/C797S (setting [5]) it was 0.4 nM. Also, the IC50 on EGFR wildtype (WT) (ATP at Km, read-out: IC50 WT (nM), Km ATP) was 40.1 nM; on EGFR wildtype (WT) (IC50 WT (nM), 100 μM ATP), above 10000 nM; on EGFR L858R/T790M/C797S (ATP at Km, read-out: IC50 L858R/T790M/C797S (nM), Km ATP), 0.3 nM; against EGFR L858R/T790M/C797S (setting [8]), 0.8 nM.

On to `CC1(O)CC2(CCN(c3cc(Nc4ccnc(-c5cnn(S(=O)(=O)C6CC6)c5)n4)ncc3C#Cc3cnn(CC(F)(F)F)c3)CC2)C1` [Example 347, 7-(2-((2-(1-(Cyclopropylsulfonyl)-1H-pyrazol-4-yl)pyrimidin-4-yl)amino)-5-((1-(2,2,2-trifluoroethyl)-1H-pyrazol-4-yl)ethynyl)pyridin-4-yl)-2-methyl-7-azaspiro[3.5]nonan-2-ol], for which the IC50 at EGFR L858R/C797S (setting [1]) stood at 11.7 nM; on EGFR L858R/C797S (setting [2]), 5.9 nM; on EGFR Del19/C797S (setting [3]) it was 8.4 nM; at EGFR Del19/C797S (setting [4]), 9.2 nM; against EGFR Del19/T790M/C797S (setting [5]) it was 6 nM; on EGFR Del19/T790M/C797S (setting [6]), 5.4 nM. In addition, the IC50 against EGFR wildtype (WT) (IC50 WT (nM), 100 μM ATP) is 7140 nM; on EGFR wildtype (WT) (setting [7]) it was 74.3 nM; against EGFR L858R/T790M/C797S (setting [8]), 1.7 nM; on EGFR L858R/T790M/C797S (setting [9]), 3.2 nM.

For `CC1(CO)CCN(c2cc(Nc3ccnc(-c4cnn(S(=O)(=O)C5CC5)c4)n3)ncc2C#CC2CCN(C(=O)C(F)(F)F)C2)CC1` (stereo not drawn) [Example 415, 1-(3-((6-((2-(1-(Cyclopropylsulfonyl)-1H-pyrazol-4-yl)pyrimidin-4-yl)amino)-4-(4-(hydroxymethyl)-4-methylpiperidin-1-yl)pyridin-3-yl)ethynyl)pyrrolidin-1-yl)-2,2,2-trifluoroethan-1-one], the IC50 on EGFR L858R/C797S (setting [1]) was 21.6 nM; against EGFR Del19/C797S (setting [3]), 1.2 nM; against EGFR Del19/T790M/C797S (setting [5]), 0.2 nM; at EGFR wildtype (WT) (IC50 WT (nM), 100 μM ATP), 5060 nM; against EGFR L858R/T790M/C797S (setting [8]), 1.7 nM.
